In the CheMixHub viscosity set:

Experiment: xn = mol fraction of the nth substance listed

CCC(C)=O + CS(C)=O
viscosity [mPa·s], 101.3 kPa
Details	298.15 K	308.15 K	318.15 K
x1 = 0.054	1.762	1.448	1.23
x1 = 0.107	1.615	1.335	1.142
x1 = 0.213	1.372	1.138	0.982
x1 = 0.317	1.162	0.979	0.852
x1 = 0.419	0.988	0.83	0.734
x1 = 0.52	0.835	0.712	0.639
x1 = 0.619	0.717	0.621	0.561
x1 = 0.716	0.627	0.547	0.496
x1 = 0.812	0.54	0.473	0.436
x1 = 0.907	0.462	0.407	0.383
x1 = 0.954	0.438	0.379	0.361

CCOC(=O)C(C)Br (stereo not given) + CCCCCC
303.15 K, 101 kPa
Details	viscosity [mPa·s]
x1 = 0.1996	0.372
x1 = 0.4039	0.5117
x1 = 0.5022	0.5973
x1 = 0.5991	0.7048
x1 = 0.7961	1.012

OC[C@H](O)C(O)[C@@H](O)CO + OC[C@@H](O)[C@@H](O)CO
101 kPa, x1 = 0.36
Details	viscosity [mPa·s]
293.2 K	1329000
298.2 K	611700
303.2 K	294200
308.1 K	154700
313.2 K	79520
318.2 K	42740
323 K	23480

CCC(C)=O + CCCCCO
viscosity [mPa·s], 100 kPa
Details	x1 = 0.0814	x1 = 0.1574	x1 = 0.2391	x1 = 0.3486	x1 = 0.4417	x1 = 0.5529	x1 = 0.6492	x1 = 0.7389	x1 = 0.8509	x1 = 0.9389
293.15 K	2.92	2.27	1.8	1.33	1.07	0.84	0.66	0.55	0.42	0.39
303.15 K	2.31	1.82	1.46	1.12	0.91	0.73	0.61	0.52	0.45	0.4
313.15 K	1.8	1.45	1.2	0.92	0.77	0.63	0.54	0.46	0.4	0.36
323.15 K	1.45	1.18	0.99	0.78	0.66	0.54	0.46	0.4	0.35	0.32
